Here are results for two compounds from patent US10251845B2, “Fatty acid cysteamine conjugates and their use as activators of autophagy” (Catabasis Pharmaceuticals, Inc., priority 2014, dated 2019).

Read-outs that look alike come from different tables or passages of the source.

The nature of data set [1]: Plasma and lung tissue drug concentration after oral dosing in mice. It counts as in vivo. Conditions: male, C57BL/6, mouse, II-3 100 mg/kg po BID 3.5 days, one hour after the last dose. As to the method:
In order to evaluate for in vivo autophagy activation, nave male C57BL/6 mice were dosed orally with compound II-3 (100 mg/kg, BID, 3.5 days). One hour after the last dose, lung tissues and plasma were collected to analyze for drug concentration and autophagy biomarkers. As discussed in earlier examples, the ratio of LC3-II to LC3-I was used as autophagy biomarker. When compound II-3 was dosed orally, the parent compound (i.e. II-3) and a major metabolite (i.e. compound I-1) was detected both in the plasma and lung tissues. One hour after the last dose, the plasma concentration of the parent compound II-3 was 143.0±52.35 ng/mL and the corresponding metabolite I-1 was 741.37±170.2 ng/mL. At this time point, the mouse lung tissue concentration of the parent compound II-3 was 536.48±24.01 ng/g. The metabolite I-1 was also detected in the lung tissues, at a concentration of 411.48±164.0 ng/g. Compound II-3 was able to induce autophagy at the given dose of 100 mg/kg and the 22% increase in the ratio of LC3-II to LC3-I in the isolated lung tissues was statistically significant (p=0.04, FIG. 12).

The subject of the next data set is Fibronectin 1 (FN1). Nature of the data set: RT-PCR of Fibronectin 1 mRNA in normal and IPF lung fibroblasts. It counts as cell-based, human. Conditions: NLF, LL29 or LL97A cells treated with TGFβ, 25 μM, 24 hours. From the text: (§1) Normal human lung fibroblasts (ScienCell Research Laboratory 3420), lung fibroblasts from idiopathic pulmonary fibrosis (IPF) patients LL29 (AnHa) (ATCC) and LL97A (ALMy) (ATCC) were maintained in DMEM F12 (Gibco 10565) supplemented with 15% fetal bovine serum (FBS) (Gibco 10437-028) plus Pen-Strep (1%) (Gibco 15140-122). Cells were split every 3 to 4 days at 1:2/1:3 dilution each time. The day before the experiment, cells were trypsinized using Trypsin-EDTA (0.05%) (Gibco 25300-054) and plated on 24-well […] at 1×10^5 cells per well.
(§2) Compounds II-3 and I-1 were first solubilized in 100% DMSO as 50 mM solution, and then diluted 1 to 200 in 1% BSA as a 10× stock solution of […], and series stock dilution (1 to 2 dilution) were carried out as needed. […] The total RNA was harvested, and the relative mRNA expression levels were assessed via RT-PCR with HPRT as the internal control. […] Significance was determined by student's t-test in comparison to control.
Total RNA was collected using RNeasy Plus Mini Kit (Qiagen #74136) and cDNA generated using SuperScriptIII (Invitrogen #18080-044) with random hexamers following the manufacturer's protocol. Relative mRNA expression levels were determined using TaqMan probes (Applied Biosystems, using the recommended best primer pairs) with HPRT (hypoxanthine phosphoryltransferase) as the internal control. […]

Data set [2] has as its system Matrix Metalloproteinase 2 (MMP-2). Nature of the data set: ELISA of MMP-2 in conditioned media of lung fibroblasts. The class given is cell-based, human. The following applies: NLF, LL29 and LL97A cells, 25 μM, in the presence of TGFβ.
Excerpt: as §1, §2
Conditioned media were collected at the end of the experiment. The levels of Matrix Metalloproteinase 2 (MMP-2) (R&D System MMP200) and human Tissue Inhibitor of Metalloproteinase 2 (TIMP-2) (R&D System DTM200) were measured according to the manufacturer's instruction. […] The ELISA was measured on a Victor×5 multilabel plate reader (PerkinElmer) at an absorbance of 450 nm with background correction at 550 nm. […]

The nature of data set [3]: Plasma stability, mouse plasma. It counts as in vitro ADME. Conditions: 5 μM, 0.5, 1 and 2 hour time points. How it is done: The in vitro stability of the test compounds was studied in human, mouse, beagle and rat plasma (plasma was purchased from Bioreclamation). Plasma was diluted to 50% with PBS (pH 7.4). Test compounds were dissolved in DMSO to a final concentration of 10 mM and then diluted to 1 mM in MeOH. Incubations were carried at a test compound concentration of 5 μM with a final DMSO concentration of 2.5%. Plasma (198 μL) was added to 96-well plate and incubated at 37° C. for 30 minutes before the addition of […] of the test compound. The resulting mixture was then incubated at 37° C. for 2 hours. At appropriate time intervals (0, 30, 60 and 120 minutes), aliquots (50 μL) were removed and reactions were terminated by adding 200 μL of acetonitrile with an internal standard. Simultaneously, plasma samples containing Benflourex or Procaine (control compound) were terminated by adding 200 μL of acetonitrile internal standard. The sample plate was centrifuged at 3500 rpm for 45 minutes at 4° C. and the supernatant was transferred to a new plate for analysis by LC/MS-MS (Agilent Model No: HPLC: 1200, MS: 6410). […] A binary gradient consisting of 0.1% formic acid in water and 0.1% formic acid in methanol was used for analyte elution.

[4] abbreviates: lung tissue, parent II-3 and metabolite I-1, read-out: lung tissue concentration.
Where [5] appears, read: plasma, parent II-3 and metabolite I-1, read-out: plasma concentration.

For the compound `CC/C=C\C/C=C\C/C=C\C/C=C\C/C=C\C/C=C\CCC(=O)NCCS` [I-1, (4Z,7Z,10Z,13Z,16Z,19Z)—N-(2-mercaptoethyl)docosa-4,7,10,13,16,19-hexaenamide], the concentration at 1 h came to 411 ± 164 ng/g in data set [1] (setting [4]) and 741 ± 170 ng/mL in data set [1] (setting [5]). Further, the “mRNA level of Fibronectin 1 (FN1)” value in the data set with Fibronectin 1 (FN1) is “suppressed”.

As for `CC/C=C\C/C=C\C/C=C\C/C=C\C/C=C\C/C=C\CCC(=O)NCCSSC(C)(C)CNC(=O)c1cccnc1` [II-3, N-(2-((2-((4Z,7Z,10Z,13Z,16Z,19Z)-docosa-4,7,10,13,16,19-hexaenamido)ethyl)disulfanyl)-2-methylpropyl)nicotinamide], the concentration at 1 h in data set [1] (setting [4]) was 536 ± 24 ng/g; in data set [1] (setting [5]) it was 143 ± 52.4 ng/mL. The “mRNA level of Fibronectin 1 (FN1)” value in the data set on Fibronectin 1 (FN1) is “suppressed”. For the same compound, the “MMP-2 level in conditioned media” value in data set [2] is recorded as “marked reduction”. In data set [3], the “plasma stability (parent compound remaining)” value is reported as “complete plasma stability”.
